Assay results from patent US8546091B2, “AKT phosphorylation at Ser473 as an indicator for taxane-based chemotherapy” (The United States of America, as represented by the …, priority 2009, dated 2013).
Like-named read-outs stand apart in the source and are kept apart here.

What was measured:
[1] = system: node-positive breast cancer; settings: NSABP B-28, Mamounas et al. 2005; paclitaxel after AC vs AC alone; cited from earlier work
[2] = system: node-positive breast cancer; type: in vivo, human
Description: We designed and conducted a study to correlate Akt phosphorylation with clinical outcome through the primary tumor specimens from the National Surgical Adjuvant Breast and Bowel Project B-28 trial. We tested the hypothesis that phosphorylation of Akt at serine 473 (“pAkt”) predicts a benefit for women with node-positive breast cancer from the sequential addition of paclitaxel after adjuvant doxorubicin plus cyclophosphamide chemotherapy.
Eligible patients signed an approved informed consent which includes tissue collection and research use of collected tissue conforming to federal and institutional guidelines. In this study, the biomarker protocol for the evaluation of Akt phosphorylation in association with disease-free survival and overall survival in patients with node-positive breast cancer treated with either adjuvant doxorubicin plus cyclophosphamide only or followed by paclitaxel was approved by the Institutional Review Boards of the National Cancer institute (Bethesda, Md.) and the National Surgical Adjuvant Breast and Bowel Project (Pittsburgh, Pa.).
HER2 status on the microarray sections were determined by the NSABP central pathology laboratory using PathVision fluorescent in situ hybridization (FISH) assay according to the FDA approved protocol per the manufacturer (Vysis, Downers Grove. Ill.). Data were expressed as the number of HER2 genes per chromosome 17 centromere: tumors with a ratio of […] were classified as HER2-positive, and those with a ratio of <2 were defined as HER2-negative. Estrogen receptor status in tissue microarray sections were also determined by the NSABP central pathology laboratory by immunohistochemistry according to the FDA approved protocol provided by DAKO (PharmDx kit; Carpinteria, Calif.). A positive result (tumor cell nuclear staining) for ER is defined as a total score (ranging from 0, 2-8) of ≧3. The total score is the sum of a proportion score from 0 to 5 and an intensity score of 0 to 3.
Sections were incubated with primary antibody in 1 to 100 dilution for 1 hour at room temperature, and binding of the antibody to its antigenic sites was amplified using Vectastain Elite avidin-biotin peroxidase complex kits (Vector Laboratories, Burlingame, Calif.). The antigen-antibody reaction sites were visualized using 3,3-diaminobenzidine for 7 minutes and, subsequently, sections were counterstained with Mayer's hematoxylin. Breast cancer cell line MDA-MB-468 which expresses pAkt, and a breast cancer specimen known to express pAkt were utilized as positive controls. Negative control was performed using isotype immunoglobulins appropriate to the primary antibodies being used (Zymed Laboratories, South San Francisco, Calif.). The immunostained tissue microarray cores with either cytoplasmic or membranous or nuclear signal were analyzed with the assistance of an Automated Cellular Imaging System (DAKO), blinded to all clinical information, after excluding tissue cores with less than 5% of invasive tumor cells present. The staining intensity and percentage of tumor cells on each tissue core was calculated by the digital imaging system. The staining index ranging from 0 to 62.8 reporting levels of Akt phosphorylation at Ser473 was determined by the percentage multiplied by intensity of staining divided by 100 (intensity X percentage/100) in tumor cells, in which the intensity was subtracted from the average tissue readout of three normal tissue cores. These cores serve as the position markers and tissue negative controls for each array slide.

[3] = system: Akt phosphorylation at serine 473; settings: literature (MacKeigan 2002; Asakuma 2003); cited from earlier work
cancer cells = settings: literature (MacKeigan 2002; Asakuma 2003); cited from earlier work

SMILES: CC(=O)O[C@H]1C(=O)[C@@]2(C)[C@H]([C@H](OC(=O)c3ccccc3)[C@]3(O)C[C@H](OC(=O)[C@H](O)[C@@H](NC(=O)c4ccccc4)c4ccccc4)C(C)=C1C3(C)C)[C@]1(OC(C)=O)CO[C@@H]1C[C@@H]2O [paclitaxel]
- effect on disease-free and overall survival [1]: significantly improve disease-free survival but not overall survival
- hazard ratio for disease-free survival ([2]; 606 patients with pAkt positive cancer, with vs without paclitaxel, FIG. 1B, P=0.027): 0.75
- hazard ratio for disease-free survival ([2]; 975 patients with pAkt-negative cancer, with vs without paclitaxel, FIG. 1A, P=0.44): 1.08
- hazard ratio for overall survival ([2]; 1581 patients with pAkt measurement, follow-up 9.1 years, 95% CI 0.79-1.15, P=0.63): 0.96
- hazard ratio for disease-free survival ([2]; 1581 patients with pAkt measurement, follow-up 9.1 years, 95% CI 0.81-1.10, P=0.46): 0.94
- improvement in disease-free survival ([2]; entire B-28 population with pAkt-Ser473 measurements, positive or negative, approximate 10 years of follow-up): 6%
- hazard ratio for overall survival ([2]; entire B-28 population, approximate 10 years of follow-up, addition of paclitaxel to AC vs AC, 95% CI 0.81-1.06, P=0.25): 0.92
- hazard ratio for disease-free survival ([2]; entire B-28 population, approximate 10 years of follow-up, sequential addition of paclitaxel to AC vs AC, 95% CI 0.79 to 0.99, P=0.034): 0.89
- adjusted hazard ratio for disease-free survival ([2]; pAkt negative cancer, multivariate proportional-hazards model, FIG. 1C, P=0.81): 1.02
- adjusted hazard ratio for disease-free survival ([2]; pAkt positive breast cancer, multivariate proportional-hazards model, FIG. 1C, P=0.02): 0.74
- hazard ratio for overall survival ([2]; pAkt-negative cancer, P=0.74): 1.04
- adjusted hazard ratio for disease-free survival ([2]; pAkt-negative, HER2-negative tumors, FIG. 3C, P=0.36): 1.12
- adjusted hazard ratio for disease-free survival ([2]; pAkt-negative, HER2-positive tumors, FIG. 3A, P=0.88): 0.96
- adjusted hazard ratio for disease-free survival ([2]; pAkt-negative, estrogen-receptor positive tumors, FIG. 2A, P=0.64): 1.06
- adjusted hazard ratio for disease-free survival ([2]; pAkt-negative, estrogen-receptor-negative tumors, FIG. 2C, P=0.79): 1.04
- improvement in disease-free survival ([2]; pAkt-positive breast cancer, sequential addition of paclitaxel): 26%
- hazard ratio for overall survival ([2]; pAkt-positive cancer, P=0.226): 0.83
- adjusted hazard ratio for disease-free survival ([2]; pAkt-positive, HER2-negative tumors, FIG. 3D, P=0.03): 0.70
- adjusted hazard ratio for disease-free survival ([2]; pAkt-positive, HER2-positive tumors, FIG. 3B, P=0.28): 0.72
- adjusted hazard ratio for disease-free survival ([2]; pAkt-positive, estrogen receptor-negative tumors, FIG. 2D, P=0.052): 0.66
- adjusted hazard ratio for disease-free survival ([2]; pAkt-positive, estrogen receptor-positive tumors, FIG. 2B, P=0.24): 0.82
- effect on Akt phosphorylation at serine 473 [3]: inhibits Akt phosphorylation at serine 473
- effect on survival of cancer cells (cancer cells): reduces the survival cancer cells
